# Assay results as given in US20240173317A1, “METHODS FOR TREATING PROGRESSIVE FAMILIAL INTRAHEPATIC CHOLESTASIS” (MIRUM PHARMACEUTICALS, INC., priority 2022, published 2024).
# Assays:
# Type in all cases: in vivo, human
# subjects with PFIC [1] = experiment: Clinician Scratch Scale (CSS) score, MARCH-PFIC Phase 3 study
# From the text: Clinician Scratch Scale (CSS). The CSS provides an assessment of itch severity. The clinician's assessment of the subject's pruritus focused on scratching and visible damage to the skin as a result of scratching as observed by the physician. The CSS uses a 5-point scale, in which 0 designates no evidence of scratching and 4 designates cutaneous mutilation with bleeding, hemorrhage and scarring. A clinician's assessment of pruritus made by the principal investigator or sub-investigator using the CSS was recorded at screening, baseline, and at additional study visits as outline in Table 2.
# For the PFIC Cohort, PFIC Type is included in the model as an additional covariate.
# Clinician Scratch Scale (CSS) was scored on a 0-4 scale, where 0=none and 4=cutaneous mutilations, haemorrage, and scarring (worst scratching).
# subjects with PFIC [2] = experiment: ItchRO(Obs) pruritus severity, MARCH-PFIC Phase 3 study; details: for percentage of pruritus response (ItchRO(Obs) responders): Week 15 to Week 26
# Procedure: The primary analysis was conducted in the intent-to-treat (ITT) population of subjects with documented biallelic mutations in ABCB11 (PFIC 2), based on standard-of-care genotyping (primary cohort criteria). Subjects with a predicted complete absence of bile salt excretion pump (BSEP) function based on the type of ABCB11 mutation (PFIC 2), as determined by a standard-of-care genotype, were excluded from the primary cohort and could enroll only in the supplemental cohort. Subjects with other PFIC subtypes (e.g., PFIC 1/3/4/5/6, or new PFIC mutation variants) or postsurgical subjects (e.g., after internal or external biliary diversion surgery or subjects with reversal of biliary diversion surgery) were enrolled in a separate supplemental cohort and evaluated as part of secondary and exploratory analyses.
# Subjects in the primary cohort were randomized in a 1:1 ratio to receive maralixibat or placebo. Subjects in the supplemental cohort were randomized in a 1:1 ratio to receive maralixibat or placebo within the following subcohorts: a) PFIC 1; b) PFIC 3; c) all other supplemental cohort subjects. All subjects received study treatment in addition to standard-of-care therapy, including antipruritic concomitant treatment.
# For subjects assigned to maralixibat, the Dose Escalation period consisted of the following weekly steps: Dose level 1, 150 μg/kg maralixibat BID for 1 week; Dose level 2, 300 μg/kg maralixibat BID for 1 week; Dose level 3, 450 μg/kg maralixibat BID for 1 week; Dose level 4, 600 μg/kg maralixibat BID for the remaining duration of the study.
# Efficacy. Severity of pruritus was assessed using the Itch caregiver/patient reported outcome measure (ItchRO™) administered as a twice daily electronic diary. Caregivers for all subjects completed the Observer instrument: ItchRO(Obs). The ItchRO(Obs) was completed by the same caregiver for consistency, whenever possible. Only subjects ≥9 years of age at screening completed the patient instrument: ItchRO(Pt). […] Pruritus was assessed and recorded twice daily, via ItchRO, beginning with the day after the screening visit and every day throughout the duration of the study. The severity of pruritus was measured by the completion of the first question in the ItchRO(Obs) (how severe were your child's itch-related symptoms) or ItchRO(Pt) (how itchy did you feel). The frequency of pruritus was measured by completion of the third question in the ItchRO(Obs) (how much of the time was your child rubbing or scratching) or ItchRO(Pt) (how much of last night/today did feeling itchy make you rub or scratch). Caregivers and subjects rated the severity and frequency of pruritus using 5 choices to describe their itching condition. ItchRO(Pt) and ItchRO(Obs) have been previously described in Kamath, et al., “Development of a Novel Tool to Assess the Impact of Itching in Pediatric Cholestasis,” Patient, 11:69-82 (2018), which is hereby incorporated by reference in its entirety for all purposes.
# For this study, the primary estimand is the improvement in pruritus measured as change from baseline in the average morning ItchRO(Obs) severity score in the maralixibat treatment group relative to the placebo group. The primary analysis on the primary efficacy endpoint was conducted in 1) participants with PFIC 2 who fulfill criteria for the primary cohort in the ITT population (non-truncated primary “B SEP cohort” or “Primary cohort” with N=31), 2) all PFIC participants (excluding the participants with prior history of surgery, heterozygous participants and unknown types, “All PFIC cohort” or “PFIC cohort” with N=64), and 3) all study participants cohort, including the participants with prior history of surgery, heterozygous participants and unknown types. A restricted maximum likelihood (REML)-based mixed-effects model for repeated measures […] was used as the primary analysis method. […]
# [3] = Height and weight Z-score, MARCH-PFIC Phase 3 study; details: BSEP deficiency group and PFIC group vs placebo
# [4] = BSEP deficiency cohort, FIG. 19A
# [5] = All PFIC cohort, Weeks 15-26, FIG. 6B
# [6] = BSEP deficiency cohort, FIG. 7A
# [7] = BSEP deficiency cohort, FIG. 7B
# [8] = BSEP deficiency cohort, FIG. 17A
# [9] = BSEP deficiency cohort, Weeks 15-26, FIG. 6A
structure (smiles),measurement,setting,value
"CCCCC1(CCCC)CS(=O)(=O)c2ccc(N(C)C)cc2[C@@H](c2ccc(OCc3ccc(C[N+]45CCN(CC4)CC5)cc3)cc2)[C@H]1O [maralixibat, 1-(4-((4-((4R,5R)-3,3-dibutyl-7-(dimethylamino)-4-hydroxy-1,1-dioxido-2,3,4,5-tetrahydrobenzo[b]thiepin-5-yl)phenoxy)methyl)benzyl)-1,4-diazabicyclo[2.2.2]octan-1-ium]",difference in CSS improvement vs placebo group,subjects with PFIC [1]; [4],1.328 point
same,improvement in CSS score relative to baseline,subjects with PFIC [1]; [4],about 1.7 points
same,difference in CSS improvement vs placebo group,"subjects with PFIC [1]; PFIC cohort, FIG. 19B",1.247 point
same,improvement in CSS score relative to baseline,"subjects with PFIC [1]; PFIC cohort, FIG. 19B",about 1.8 points
same,"difference from the placebo group, evening ItchRO[Obs] score","subjects with PFIC [2]; All PFIC cohort, FIG. 8A",1.157 point
same,reduction from baseline in pruritus evening ItchRO[Obs] score,"subjects with PFIC [2]; All PFIC cohort, FIG. 8A",1.8 points
same,"difference from the placebo group, maximum daily ItchRO[Obs] score","subjects with PFIC [2]; All PFIC cohort, FIG. 8B",1.198 point
same,reduction from baseline in maximum pruritus daily ItchRO[Obs] score,"subjects with PFIC [2]; All PFIC cohort, FIG. 8B",1.9 points
same,percentage of pruritus response (ItchRO(Obs) responders),"subjects with PFIC [2]; All PFIC cohort, FIG. 14A",63.6%
same,"difference from the placebo group, morning ItchRO[Obs] score",subjects with PFIC [2]; [5],1.20 point
same,reduction from baseline in pruritus morning ItchRO[Obs] score,subjects with PFIC [2]; [5],1.8 points
same,median proportion of reported days with an ItchRO(Obs) score of 0-1,"subjects with PFIC [2]; All-PFIC (MRX n = 33), Weeks 15-26",95%
same,"difference from the placebo group, evening ItchRO[Obs] score",subjects with PFIC [2]; [6],1.111 point
same,reduction from baseline in pruritus evening ItchRO[Obs] score,subjects with PFIC [2]; [6],1.7 points
same,"difference from the placebo group, maximum daily ItchRO[Obs] score",subjects with PFIC [2]; [7],1.130 point
same,reduction from baseline in maximum pruritus daily ItchRO[Obs] score,subjects with PFIC [2]; [7],1.8 points
same,difference vs placebo in proportion of pruritus responders (assessments ≤1),"subjects with PFIC [2]; BSEP deficiency cohort, FIG. 16A",0.344
same,difference vs placebo in proportion of pruritus responders (assessments ≤1 or decrease ≥1),subjects with PFIC [2]; [8],0.398
same,proportion of pruritus responders: proportion of assessments ≤1 or decrease ≥1,subjects with PFIC [2]; [8],over 0.7
same,percentage of pruritus response (ItchRO(Obs) responders),"subjects with PFIC [2]; BSEP deficiency cohort, FIG. 13A",57.1%
same,"difference from the placebo group, morning ItchRO[Obs] score",subjects with PFIC [2]; [9],1.089 point
same,reduction from baseline in pruritus morning ItchRO[Obs] score,subjects with PFIC [2]; [9],1.7 points
same,proportion of pruritus responders: proportion of assessments ≤1,"subjects with PFIC [2]; BSEP deficiency cohort, morning and evening, FIG. 16A",over 0.6
same,"difference from the placebo group, morning ItchRO[Obs] score","subjects with PFIC [2]; FIC1 (PFIC 1) cohort, FIG. 9A",1.136 point
same,reduction from baseline in pruritus morning ItchRO[Obs] score,"subjects with PFIC [2]; FIC1 (PFIC 1) cohort, FIG. 9A",1.4 points
same,improvements in pruritus (weekly ItchRO(Obs) score),"subjects with PFIC [2]; FIC1, MDR3, TJP2, MYO5B cohorts, FIG. 33A-B",statistically significant and clinically meaningful improvements
same,"difference from the placebo group, morning ItchRO[Obs] score","subjects with PFIC [2]; MDR3 (PFIC 3) cohort, FIG. 9B",0.594 point
same,reduction from baseline in pruritus morning ItchRO[Obs] score,"subjects with PFIC [2]; MDR3 (PFIC 3) cohort, FIG. 9B",1.8 points
same,difference vs placebo in proportion of pruritus responders (assessments ≤1),"subjects with PFIC [2]; PFIC cohort, Baseline to Week 26, FIG. 16B, 27B",0.345
same,difference vs placebo in proportion of pruritus responders (assessments ≤1 or decrease ≥1),"subjects with PFIC [2]; PFIC cohort, FIG. 17B",0.380
same,proportion of pruritus responders: proportion of assessments ≤1 or decrease ≥1,"subjects with PFIC [2]; PFIC cohort, FIG. 17B",over 0.7
same,response to treatment,subjects with PFIC [2]; PFIC patients post surgery (full population),significant response
same,improvements in pruritus severity,"subjects with PFIC [2]; full-study population, FIG. 35A",statistically significant and clinically meaningful improvements
same,improvements in pruritus,"subjects with PFIC [2]; patients with no-variant found, FIG. 35C",demonstrated improvements
same,pruritus change in individual t-BSEP patients (morning ItchRO(Obs)),"subjects with PFIC [2]; t-BSEP (truncated PFIC2) patients, Baseline to Week 26, FIG. 41D",limited improvement in pruritus
same,change of participant height Z-score over time,[3]; FIG. 24A-C,overall positive trend for increase
same,change of participant weight Z-score over time,[3]; FIG. 25A-C,gained significantly more weight over time than placebo participants
